The record followed here is US12139768B2, “Polymerase chain reaction primers and probes for Mycobacterium tuberculosis” (Rutgers, The State University of New Jersey, priority 2014, dated 2024).

Read-outs that look alike come from different tables or passages of the source.

The test system of one series is eis promoter region. The format is binding. As to conditions: clinical DNA.
The next series relates to rrs gene. The format is binding. As to conditions: clinical DNA.
In series [1] the test system is M.tb isolates. The format is cell-based, Mycobacterium tuberculosis.
Series [2] concerns M.tb isolates. The format is cell-based, Mycobacterium tuberculosis. This is another data set of the same source.
The mark [3] stands for this setting: eis promoter G(−10)A + NM (mixed).
The mark [4] stands for this setting: rrs-A1401G + eis C(−14)T double mutant.

Take “ctcgcGGCATATGCCACAGTCGGATTCTcTGACgcgag (DNA CTCGCGGCATATGCCACAGTCGGATTCTCTGACGCGAG; molecular beacon, labels not given here, further chemistry not given here) [eis-2, SMB probe targeted against the eis promoter region]”: the “Mean Tm” value with eis promoter region (No mutation (NM), wild type) was 69 °C; in the series with eis promoter region (No mutation (NM), wild type, listed as eis2), 69.00 °C; with eis promoter region (eis promoter C(−8) deletion), 63.10 °C; in the series on eis promoter region (eis promoter C(−12)T), 62.92 °C; with eis promoter region (eis promoter C(−14)T) it was 62.60 °C; in the series with eis promoter region (eis promoter G(−10)A) it was 64.70 °C. In addition, the “Mean Tm” value in the series with eis promoter region (eis promoter G(−10)A + NM (mixed, double Tm peak for eis2)) is 64.80-69.10 °C; in the series on eis promoter region (eis promoter G(−37)T), 69.10 °C; with eis promoter region (rrs gene A1401G), 69.10 °C; with eis promoter region (rrs gene A1401G + NM (mixed)), 69.10 °C; with eis promoter region (rrs gene C1402T + NM (mixed)) it was 69.20 °C; in the series on eis promoter region (setting [4]), 62.50 °C. For the same compound, the “dTm (Tm difference of mutant from wild type)” value in the series on eis promoter region (eis promoter C(−8) deletion) is 5.90 °C; in the series with eis promoter region (eis promoter C(−12)T) it was 6.08 °C; in the series with eis promoter region (eis promoter C(−14)T) it was 6.40 °C; in the series on eis promoter region (eis promoter G(−10)A), 4.30 °C; in the series on eis promoter region (setting [3]), 4.20 °C; in the series on eis promoter region (eis promoter G(−37)T) it was −0.10 °C. Also, the “dTm (Tm difference of mutant from wild type)” value is −0.10 °C with eis promoter region (rrs gene A1401G), −0.10 °C in the series with eis promoter region (rrs gene A1401G + NM (mixed)), −0.20 °C with eis promoter region (rrs gene C1402T + NM (mixed)) and 6.50 °C in the series with eis promoter region (setting [4]).

With “cacgACCGCCCGTCACGTCATGAAAGTCGGTcgtg (DNA CACGACCGCCCGTCACGTCATGAAAGTCGGTCGTG; molecular beacon, labels not given here, further chemistry not given here) [rrs-1400, SMB probe targeted against the rrs gene]”, the “Mean Tm” value in the series with rrs gene (No mutation (NM), wild type) was found to be 70.1 °C; in the series with rrs gene (eis promoter C(−8) deletion), 70.10 °C; in the series with rrs gene (eis promoter C(−12)T), 70.15 °C; in the series on rrs gene (eis promoter C(−14)T), 70.10 °C; with rrs gene (eis promoter G(−10)A), 70.20 °C; in the series with rrs gene (setting [3]), 70.20 °C. The “Mean Tm” value in the series on rrs gene (eis promoter G(−37)T) was 70.20 °C; in the series on rrs gene (rrs gene A1401G), 66.20 °C; in the series on rrs gene (rrs gene A1401G + NM (mixed, double Tm peak)), 66.20-70.10 °C; in the series on rrs gene (rrs gene C1402T + NM (mixed, double Tm peak)), 64.50-70.10 °C; in the series with rrs gene (setting [4]), 66.30 °C. Further, the “dTm (Tm difference of mutant from wild type)” value with rrs gene (eis promoter C(−8) deletion) was 0.00 °C; in the series with rrs gene (eis promoter C(−12)T), −0.05 °C; in the series with rrs gene (eis promoter C(−14)T), 0.00 °C; with rrs gene (eis promoter G(−10)A), −0.10 °C; with rrs gene (setting [3]) it was −0.10 °C; in the series with rrs gene (eis promoter G(−37)T), −0.10 °C. The “dTm (Tm difference of mutant from wild type)” value with rrs gene (rrs gene A1401G) is 3.9 °C; in the series with rrs gene (rrs gene A1401G + NM (mixed)) it was 3.90 °C; in the series with rrs gene (rrs gene C1402T + NM (mixed)), 5.6 °C; in the series with rrs gene (setting [4]), 3.80 °C.

As for `NCC[C@H](O)C(=O)N[C@@H]1C[C@H](N)[C@@H](O[C@H]2O[C@H](CN)[C@@H](O)[C@H](O)[C@H]2O)[C@H](O)[C@H]1O[C@H]1O[C@H](CO)[C@@H](O)[C@H](N)[C@H]1O` [AMK, Amikacin], in the series with M.tb isolates [1], the “Susceptibility (LJ)” value was “S and R”; the “Total number of isolates Susceptible (LJ)” value is reported as 513.

As to `NC[C@H]1O[C@H](O[C@H]2[C@H](O)[C@@H](O[C@H]3O[C@H](CO)[C@@H](O)[C@H](N)[C@H]3O)[C@H](N)C[C@@H]2N)[C@H](O)[C@@H](O)[C@@H]1O` [KAN, Kanamycin], in the series on M.tb isolates [1], the “Susceptibility (LJ)” value was “S and R”; the “Total number of isolates Susceptible (LJ)” value was found to be 497. Besides, in the series with M.tb isolates [2], the “Susceptibility (MGIT)” value was “R and S”; the “Total number of isolates Susceptible (MGIT)” value came to 447.
